The target in this test is T1, human TGR5 (Homo sapiens, UniProt Q8TDU6).
T1 construct: expressed in transfected cells; host or cells: HEK293
T1 sequence (Q8TDU6 1-330): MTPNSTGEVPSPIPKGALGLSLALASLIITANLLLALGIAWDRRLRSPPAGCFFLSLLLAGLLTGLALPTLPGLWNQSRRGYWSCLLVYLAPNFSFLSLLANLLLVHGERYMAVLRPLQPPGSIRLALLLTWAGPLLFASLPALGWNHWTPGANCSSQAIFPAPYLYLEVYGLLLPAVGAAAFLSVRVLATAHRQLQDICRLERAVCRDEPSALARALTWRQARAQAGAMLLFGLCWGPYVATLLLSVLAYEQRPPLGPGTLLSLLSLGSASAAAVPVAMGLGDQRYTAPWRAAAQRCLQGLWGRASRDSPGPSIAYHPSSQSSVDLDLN
Kind of test: Cell-based TGR5 assay (cAMP generation, HTRF). The note with it: HEK293 cells stably transfected with human TGR5; cAMP by HTRF; 30 minutes at 37° C.; read-out: pEC50 Human TGR5 (converted). Put shortly:
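First, compounds in 3-fold serial dilution were placed in HBSS with 10 mM HEPES pH 7.4 and 0.5 mM IBMX. Next, human TGR5-expressing HEK293 cells were added and incubated 30 min at 37° C. Finally, cAMP was detected by HTRF and pEC50 derived by logistic fitting.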
Consider `O=C([C@@H](O)[C@@H](O)[C@H](O)[C@@H](O)CO)N(CCCCCSc1ccc(Cl)c(COC2(c3cnccc3-c3ccccc3OC3CC3)CC2)c1)CCOCCO` [Compound I-489, (2S,3S,4R,5S)-N-(5-[[4-chloro-3-([1-[4-(2-cyclopropoxyphenyl)pyridin-3-yl]cyclopropoxy]methyl)phenyl]sulfanyl]pentyl)-2,3,4,5,6-pentahydroxy-N-[2-(2-hydroxyethoxy)ethyl]hexanamide], for which the EC50 is less than 0.1 µM.

As for `O=C(NCCOCCSc1ccc(Cl)c(COC2(c3cnccc3-c3ccccc3OC3CC3)CC2)c1)NC[C@H](O)[C@@H](O)[C@H](O)[C@H](O)CO` [Compound I-490, 1-[2-(2-[[4-Chloro-3-([1-[4-(2-cyclopropoxyphenyl)pyridin-3-yl]cyclopropoxy]methyl)phenyl]sulfanyl]ethoxy)ethyl]-3-[(2S,3R,4R,5R)-2,3,4,5,6-pentahydroxyhexyl]urea], the EC50 is less than 0.1 µM.

`O=C(NCCOCC[S+]([O-])c1ccc(Cl)c(COC2(c3cnccc3-c3ccccc3OC3CC3)CC2)c1)NC[C@H](O)[C@@H](O)[C@H](O)[C@H](O)CO` (stereo partly drawn) [Compound I-491, 1-[2-(2-[[4-chloro-3-([1-[4-(2-cyclopropoxyphenyl)pyridin-3-yl]cyclopropoxy]methyl)benzene]sulfinyl]ethoxy)ethyl]-3-[(2S,3R,4R,5R)-2,3,4,5,6-pentahydroxyhexyl]urea]: the EC50 was 0.126 to 1 µM.

For `O=C(NCCOCCS(=O)(=O)c1ccc(Cl)c(COC2(c3cnccc3-c3ccccc3OC3CC3)CC2)c1)NC[C@H](O)[C@@H](O)[C@H](O)[C@H](O)CO` [Compound I-492, 1-[2-(2-[[4-Chloro-3-([l-[4-(2-cyclopropoxyphenyl)pyridin-3-yl]cyclopropoxy]methyl)benzene]sulfonyl]ethoxy)ethyl]-3-[(2S,3R,4R,5R)-2,3,4,5,6-pentahydroxyhexyl]urea], the EC50 is less than 0.1 µM.

Take `O=C(NCCOCCSc1ccc(Cl)c(COC2(c3cnccc3-c3ccccc3OC3COC3)CC2)c1)NC[C@H](O)[C@@H](O)[C@H](O)[C@H](O)CO` [Compound I-493, 1-(2-(2-(4-Chloro-3-((1-(4-(2-(oxetan-3-yloxy)phenyl)pyridin-3-yl)cyclopropoxy)methyl)phenylthio)ethoxy)ethyl)-3-((2S,3R,4R,5R)-2,3,4,5,6-pentahydroxyhexyl)urea]: the EC50 is less than 0.1 µM.

In the case of `O=C(NCCCCCSc1ccc(Cl)c(CNC2(c3cnccc3-c3ccccc3OC3CC3)CC2)c1)NC[C@H](O)[C@@H](O)[C@H](O)[C@H](O)CO` [Compound I-494, 1-[5-([4-Chloro-3-[([1-[4-(2-cyclopropoxyphenyl)pyridin-3-yl]cyclopropyl]amino)methyl]phenyl]sulfanyl)pentyl]-3-[(2S,3R,4R,5R)-2,3,4,5,6-pentahydroxyhexyl]urea], the EC50 is less than 0.1 µM.

In the case of `Cc1ccc(SCCCCC(=O)N(C)C[C@H](O)[C@@H](O)[C@H](O)[C@H](O)CO)nc1CNC1(c2cnccc2-c2ccccc2OC2CC2)CC1` [Compound I-495, 5-([6-[([1-[4-(2-Cyclopropoxyphenyl)pyridin-3-yl]cyclopropyl]amino)methyl]-5-methylpyridin-2-yl]sulfanyl)-N-methyl-N-[(2S,3R,4R,5R)-2,3,4,5,6-pentahydroxyhexyl]pentanamide], the EC50 was 0.126 to 1 µM.

Take `CSc1ncc(C)c(CNC2(c3cnccc3-c3ccccc3OC3CC3)CC2)n1` [Compound I-496, 1-[4-(2-Cyclopropoxyphenyl)pyridin-3-yl]-N-[[5-methyl-2-(methylsulfanyl)pyrimidin-4-yl]methyl]cyclopropan-1-amine]: the EC50 was less than 0.1 µM.

On to `CCc1ccc(SCCCC(=O)NC[C@H](O)[C@@H](O)[C@H](O)[C@H](O)CO)cc1COC1(c2cnccc2-c2ccccc2OC2CC2)CC1` [Compound I-497, 4-[[3-([l-[4-(2-Cyclopropoxyphenyl)pyridin-3-yl]cyclopropoxy]methyl)-4-ethylphenyl]sulfanyl]-N-[(2S,3R,4R,5R)-2,3,4,5,6-pentahydroxyhexyl]butanamide], for which the EC50 is 0.126 to 1 µM.

`O=C(CCCSc1ccc(Cl)c(COC2(c3cnccc3-c3ccccc3OC3CC3)CC2)c1)NC[C@H](O)[C@@H](O)[C@H](O)[C@H](O)CO` [Compound I-498, 4-[[4-Chloro-3-([1-[4-(2-cyclopropoxyphenyl)pyridin-3-yl]cyclopropoxy]methyl)phenyl]sulfanyl]-N-[(2S,3R,4R,5R)-2,3,4,5,6-pentahydroxyhexyl]butanamide]: the EC50 was less than 0.1 µM.

Regarding `CC(=O)N(CCCCCSc1ccc(Cl)c(CNC2(c3cnccc3-c3ccccc3OC3CC3)CC2)c1)C[C@H](O)[C@@H](O)[C@H](O)[C@H](O)CO` [Compound I-499, N-[5-({4-chloro-3-[({1-[4-(2-cyclopropoxyphenyl)pyridin-3-yl]cyclopropyl}amino)methyl]phenyl}sulfanyl)pentyl]-N-[(2S,3R,4R,5R)-2,3,4,5,6-pentahydroxyhexyl]acetamide], the EC50 was less than 0.1 µM.

Take `CC(=O)N(CCCSc1ccc(Cl)c(COC2(c3cnccc3-c3ccccc3OC3CC3)CC2)c1)C[C@H](O)[C@@H](O)[C@H](O)[C@H](O)CO` [Compound I-500, N-(3-{[4-chloro-3-({1-[4-(2-cyclopropoxyphenyl)pyridin-3-yl]cyclopropoxy}methyl)phenyl]sulfanyl}propyl)-N-[(2S,3R,4R,5R)-2,3,4,5,6-pentahydroxyhexyl]acetamide]: the EC50 was less than 0.1 µM.

With `CC(=O)N(CCCCSc1ccc(Cl)c(COC2(c3cnccc3-c3ccccc3OC3CC3)CC2)c1)C[C@H](O)[C@@H](O)[C@H](O)[C@H](O)CO` [Compound I-501, N-(4-{[4-chloro-3-({1-[4-(2-cyclopropoxyphenyl)pyridin-3-yl]cyclopropoxy}methyl)phenyl]sulfanyl}butyl)-N-[(2S,3R,4R,5R)-2,3,4,5,6-pentahydroxyhexyl]acetamide], the EC50 was less than 0.1 µM.

Take `CC(=O)N(CCCSc1ccc(Cl)c(CNC2(c3cnccc3-c3ccccc3OC3CC3)CC2)c1)C[C@H](O)[C@@H](O)[C@H](O)[C@H](O)CO` [Compound I-502, N-[3-({4-chloro-3-[({1-[4-(2-cyclopropoxyphenyl)pyridin-3-yl]cyclopropyl}amino)methyl]phenyl}sulfanyl)propyl]-N-[(2S,3R,4R,5R)-2,3,4,5,6-pentahydroxyhexyl]acetamide]: the EC50 was less than 0.1 µM.

For `CC(=O)N(CCCCSc1ccc(Cl)c(CNC2(c3cnccc3-c3ccccc3OC3CC3)CC2)c1)C[C@H](O)[C@@H](O)[C@H](O)[C@H](O)CO` [Compound I-503, N-[4-({4-chloro-3-[({1-[4-(2-cyclopropoxyphenyl)pyridin-3-yl]cyclopropyl}amino)methyl]phenyl}sulfanyl)butyl]-N-[(2S,3R,4R,5R)-2,3,4,5,6-pentahydroxyhexyl]acetamide], the EC50 was less than 0.1 µM.

In the case of `CC(=O)N(CCSc1ccc(Cl)c(CNC2(c3cnccc3-c3ccccc3OC3CC3)CC2)c1)C[C@H](O)[C@@H](O)[C@H](O)[C@H](O)CO` [Compound I-504, N-[2-({4-chloro-3-[({1-[4-(2-cyclopropoxyphenyl)pyridin-3-yl]cyclopropyl}amino)methyl]phenyl}sulfanyl)ethyl]-N-[(2S,3R,4R,5R)-2,3,4,5,6-pentahydroxyhexyl]acetamide], the EC50 was 0.126 to 1 µM.

For the compound `CC(=O)N(CCSc1ccc(Cl)c(COC2(c3cnccc3-c3ccccc3OC3CC3)CC2)c1)C[C@H](O)[C@@H](O)[C@H](O)[C@H](O)CO` [Compound I-505, N-(2-{[4-chloro-3-({1-[4-(2-cyclopropoxyphenyl)pyridin-3-yl]cyclopropoxy}methyl)phenyl]sulfanyl}ethyl)-N-[(2S,3R,4R,5R)-2,3,4,5,6-pentahydroxyhexyl]acetamide], the EC50 was less than 0.1 µM.

Consider `CN(CCCCSc1ccc(Cl)c(CNC2(c3cnccc3-c3ccccc3OC3CC3)CC2)c1)C(=O)[C@@H](O)[C@@H](O)[C@H](O)[C@@H](O)CO` [Compound I-506, (2S,3S,4R,5S)-N-[4-({4-chloro-3-[({1-[4-(2-cyclopropoxyphenyl)pyridin-3-yl]cyclopropyl}amino)methyl]phenyl}sulfanyl)butyl]-2,3,4,5,6-pentahydroxy-N-methylhexanamide], for which the EC50 was less than 0.1 µM.

Consider `CN(CCCCCSc1ccc(Cl)c(CNC2(c3cnccc3-c3ccccc3OC3CC3)CC2)c1)C(=O)[C@@H](O)[C@@H](O)[C@H](O)[C@@H](O)CO` [Compound I-507, (2S,3S,4R,5S)-N-[5-({4-chloro-3-[({11-[4-(2-cyclopropoxyphenyl)pyridin-3-yl]cyclopropyl}amino)methyl]phenyl}sulfanyl)pentyl]-2,3,4,5,6-pentahydroxy-N-methylhexanamide], for which the EC50 is less than 0.1 µM.

As to `CN(CCCSc1ccc(Cl)c(COC2(c3cnccc3-c3ccccc3OC3CC3)CC2)c1)C(=O)[C@@H](O)[C@@H](O)[C@H](O)[C@@H](O)CO` [Compound I-508, (2S,3S,4R,5S)-N-(3-{[4-chloro-3-({1-[4-(2-cyclopropoxyphenyl)pyridin-3-yl]cyclopropoxy}methyl)phenyl]sulfanyl}propyl)-2,3,4,5,6-pentahydroxy-N-methylhexanamide], the EC50 is less than 0.1 µM.

Take `CN(CCCCCSc1ccc(Cl)c(COC2(c3cnccc3-c3ccccc3OC3CC3)CC2)c1)C(=O)[C@@H](O)[C@@H](O)[C@H](O)[C@@H](O)CO` [Compound I-509, (2S,3S,4R,5S)-N-(5-{[4-chloro-3-({1-[4-(2-cyclopropoxyphenyl)pyridin-3-yl]cyclopropoxy}methyl)phenyl]sulfanyl}pentyl)-2,3,4,5,6-pentahydroxy-N-methylhexanamide]: the EC50 was less than 0.1 µM.

The values are drawn from US12084472B2 (Ardelyx, Inc., priority 2015, dated 2024).
